The values below are quoted from earlier work in patent US20260232685A1, “TRANSDERMAL PERMEATION ENHANCING COMPOSITION AND APPLICATION THEREOF IN TIMOLOL PREPARATION” (WUHAN CONFORM PHARMACEUTICAL CO., LTD., priority 2019, published 2026).

For the data set the following is noted: absorbed by the gastrointestinal tract; J. Pharm. Pharmacol., 1978, 30, 53.

Turning to `CC(C)(C)NC[C@H](O)COc1nsnc1N1CCOCC1` [timolol], the “Hepatic first-pass effect and metabolism at other sites, share of the total dose” value is given as “about 34%”.
